“Also recorded” adds a separate entry of the source.
Columns and labels:
[1] = tested on: SARS-CoV-2 clinical isolate 35245; experiment: Plaque reduction assay, SARS-CoV-2 35245; type: cell-based; conditions: Severe acute respiratory syndrome coronavirus 2, read-out: Antiviral activity IC50 against coronaviruses, SARS-CoV-2 clinical isolate 35245, PR
HCoV-OC43 = experiment: MTT test, HCoV-OC43 in Vero-76 cells; type: cell-based; conditions: Betacoronavirus 1, OC43, Vero 76, read-out: IC50 (HCoV-OC43)
[2] = tested on: bone marrow, liver, kidney and spleen cells; experiment: DNA damage accounting test (DNA Comet); type: in vivo, F1 hybrids of SWAxC57BL/6 mice; conditions: 400 mg/kg and 1000 mg/kg topically
Protocol: (§1) PDSTP doses tested: 400 mg/kg and 1000 mg/kg
(§2) Test subjects: F1 hybrids of SWAxC57BL/6 mice.
Method of administration: topically.

[3] = Acute toxicity, topical application, mice; type: in vivo; conditions: for LD50: acute toxicity, topical application
[4] = Cytotoxicity (MTT test) in Vero-76 cells; type: cell-based, African Green Monkey (Cercopithecus aethiops); conditions: African green monkey
Protocol: (§3) The microtetrazolium test (MTT test) was used to study the cytotoxicity of the compounds. Vero cells were seeded in 96-well plates at an initial density of 3×10^5 cells/mL, in Gibco Dulbecco’s Modified Eagle Medium supplemented with L-glutamine and 25 mg/L kanamycin, and 10 % fetal bovine serum (FBS) (DMEM, Thermo Fisher Scientific, Waltham, MA USA). Cell cultures were then incubated at 37 °C in a 5 % CO2 atmosphere, in the absence or presence of serial dilutions of test compounds. The test medium used for the cytotoxic assay as well as for the antiviral assay contained 1 % of the appropriate serum. Cell viability was determined after 72 h at 37 °C by the MTT method as previously reported. The cell viability was expressed as a percentage of the control. The 50% cytotoxic concentration (CC50) of each compound was defined as the concentration of the compound that reduced the absorbance (OD570) of the treated cells to 50% when compared with that of untreated cells. CC50 mean values were calculated from at least three independent experiments.

HCoV-229E = experiment: Plaque reduction assay, HCoV-229E in Vero E6 cells; type: cell-based
Protocol: (§4) Vero E6 cells were incubated in the presence of PDSTP and reference compounds (100.0, 20.0, 4.0, and 0.8 μM concentrations) for 1 h at 37°C in a 5% CO2 and then infected for 1 h with 250 μL of the corresponding virus (SARS-CoV-2 PV10734 or HCoV-229E) dilutions to obtain 50–100 PFU/well. The plates were then incubated for 1 h at 37°C in a 5% CO2 atmosphere. Following the removal of the unabsorbed virus, 400 μL of the medium (D-MEM with L-glutamine, 4,500 mg/L D-glucose, and 1% inactivated FBS) containing 0.75% methyl-cellulose (M0512, viscosity 4,000 cP, Sigma-Aldrich, United States) and the serial dilutions of the compounds were added and incubated for 4 (SARS-CoV-2) or 2 (HCoV-229E) days at 37°C in a 5% CO2 atmosphere. Subsequently, the cells were fixed and stained with a 0.2% crystal violet solution (V5265, Sigma-Aldrich, United States) and then the number of plaques was calculated. The degree of cell growth/viability and viral multiplication at each drug concentration tested was expressed as a percentage of the untreated control. Concentrations resulting in 50% inhibition (CC50 or EC50) were determined using linear regression analysis.

[5] = Immunotoxicity study, long-term topical application; type: in vivo
Description: Conclusion: PDSTP compound has no effect on humoral immunity and functional activity of macrophages when applied topically for 30 days in doses up to 100 TD.

SARS-COV-2 PV10734 [6] = experiment: Time-of-addition and cell pre-treatment assay in Vero cells; type: cell-based
[7] = Acute toxicity, intragastric administration, mice; type: in vivo; conditions: maximum dose 1000 mg/kg
mouse bone marrow cells = experiment: Chromosomal aberrations in mouse bone marrow cells; type: in vivo, F1 hybrids of SWAxC57BL/6 mice; conditions: 400 mg/kg and 1000 mg/kg topically
Protocol: as §1, §2
Method of administration: topically

[8] = Acute toxicity, intravenous administration, mice; conditions: both sexes, mouse, in vivo, Mice (M/F)
SARS-COV-2 PV10734 [9] = experiment: Virucidal activity assay; conditions: 20 µM; 4°C and 37°C for 2 hours
Protocol: PDSTP (20 µM) was incubated with 3×10^5 PFU/mL of SARS-COV-2 PV10734 at either 4 and 37 °C for 2 hours. The mixture of the viral sample without a test compound was used as an untreated control. At the end of the incubation period, samples were serially diluted in media and titers were determined on Vero-76 cells at high dilutions, at which the compound was not active. Virus titers were determined by plaque assay in Vero-76 cells.

[10] = Allergenicity study, delayed-type hypersensitivity, mice; type: in vivo; conditions: SWA x C57BL/6 mice
[11] = Reproductive toxicity: postnatal development of F1 generation offspring; type: in vivo, white laboratory rats; conditions: female rats received PDSTP from the 6th day of gestation to delivery
Protocol: PDSTP doses tested: 10% solution
Test subjects: white laboratory rats of both sexes
During the study of postnatal development and fertility of F1 generation offspring born from female rats that received PDSTP from the 6th day of gestation to delivery, the rates of physical development, the rate of maturation of sensory-motor reflexes and emotional-motor behavior, as well as fertility were evaluated in comparison with rats born from intact females.

[12] = Cytotoxicity (MTT test) in Vero E6 cell line; type: cell-based, African Green Monkey (Cercopithecus aethiops); conditions: African green monkey, mean ± SD, three independent experiments
Protocol: as §3

[13] = tested on: SARS-CoV-2 clinical isolate VR PV10734; experiment: Plaque reduction assay, SARS-CoV-2 VR PV10734 in Vero E6 cells; type: cell-based; conditions: Severe acute respiratory syndrome coronavirus 2, Vero C1008, mean ± SD, read-out: Antiviral activity IC50 against coronaviruses, SARS-CoV-2 clinical isolate VR PV10734, PR
Protocol: as §4

With `Cc1nc(N2CC[N+]3(CC2)CC[N+]2(CCNCC2)CC3)c([N+](=O)[O-])c(N2CC[N+]3(CC2)CC[N+]2(CCNCC2)CC3)n1.Cl.Cl.O.O.O.O.O.O.O.O.O.[Cl-].[Cl-].[Cl-].[Cl-]` [PDSTP, 3,3′-(2-methyl-5-nitropyrimidine-4,6-diyl)bis-3,12-diaza-6,9-diazonia-dispiro[5.2.5.2]hexadecane tetrachloride dihydrochloride nonahydrate] the IC50 [1] was 21.4 ± 7.4 µM, the IC50 (HCoV-OC43) was 0.7 ± 0.4 µM and the “Induction of DNA damage (DNA Comet)” value [2] was “does not induce DNA damage”. For the same molecule, the LD50 [3] was “greater than 31.25 mg/cm^2”, the “Toxicity and local irritant effects on skin” value ([3]; maximum regulated amount applied to the skin) was “No manifestations of toxicity and local irritant effects were observed” and the LD50 ([3]; mouse, in vivo, topical or ocular, 2500 mg/kg, read-out: LD50) was greater than 2500 mg/kg. For the same molecule, the CC50 at 72 h [4] was greater than 100 µM, the “Antiviral activity against alphacoronavirus HCoV-229E” value (HCoV-229E) was “no in vitro activity; also recorded: No antiviral activity was detected” and the IC50 (HCoV-229E; Human coronavirus 229E, Vero C1008, Vero E6, mean ± SD, read-out: Antiviral activity IC50 against coronaviruses, HCoV-229E, PR) was greater than 100 µM. For the same molecule, the “Effect on cellular immunity” value ([5]; long-term topical applications, immunosuppression only at maximum dose of 100 TD, reversible 14 days after withdrawal) was “tends to suppress cellular immunity”, the “Effect on humoral immunity and functional activity of macrophages” value ([5]; topically for 30 days in doses up to 100 TD) was “no effect” and the “Antiviral activity, pre-treatment and early stages of infection” value (SARS-COV-2 PV10734 [6]) was “exhibited antiviral activity”. For the same molecule, the “Inhibitory effect at the later stages of infection” value (SARS-COV-2 PV10734 [6]) was “barely noticeable”, the Clinical signs [7] was “piloerection and diarrhea, deterioration of hair coat, decreased motor activity, and decreased body weight” and the Mortality [7] was “The death of animals was not recorded”. The “Induction of chromosomal aberrations” value (mouse bone marrow cells) was “did not reveal the ability to induce chromosomal aberrations”, the LD50 [8] was 150 mg/kg and the “Virucidal activity (direct impact on viral infectivity)” value (SARS-COV-2 PV10734 [9]) was “no direct impact; also recorded: lacks virucidal activity”. The Delayed-type hypersensitivity [10] was “No delayed-type hypersensitivity was detected”, the “Effect on fertility of F1 generation offspring” value [11] was “No statistically significant effect” and the “Effect on postnatal development of F1 generation offspring” value [11] was “does not adversely affect the studied parameters”. For the same molecule, the CC50 at 72 h [12] was 183 ± 40.5 µM and the IC50 [13] was 1.8 ± 0.3 µM.
